In data set [1] the test system is SW837. Description: Antiproliferative activity against human SW837 cells expressing KRAS G12C mutant assessed as relative cell viability at 100 nM incubated for 72 hrs by CCK-8 assay. Type of data set: functional. The note with it: read-out: Activity. Background: Tetrazolium dyes change colour on reduction, which living cells bring about.
The subject of data set [2] is MIA PaCa-2. Description: Antiproliferative activity against human MIA PaCa-2 cells expressing KRAS G12C mutant assessed as relative cell viability at 100 nM incubated for 72 hrs by CCK-8 assay. It is filed as functional. Conditions: read-out: Activity.
The test system of data set [3] is NCI-H23. Kind of data set: Antiproliferative activity against human NCI-H23 cells expressing KRAS G12C mutant assessed as relative cell viability at 100 nM incubated for 72 hrs by CCK-8 assay. Type of data set: functional. Conditions: read-out: Activity.
For data set [4], the system named is Calu-1. Description: Antiproliferative activity against human Calu-1 cells expressing KRAS G12C mutant assessed as relative cell viability at 100 nM incubated for 72 hrs by CCK-8 assay. It is filed as functional. The note with it: read-out: Activity.
Data set [5] concerns NCI-H358. Description: Antiproliferative activity against human NCI-H358 cells expressing KRAS G12C mutant assessed as relative cell viability at 100 nM incubated for 72 hrs by CCK-8 assay. Type of data set: functional. The note with it: read-out: Activity.
The test system of data set [6] is NCI-H358. Description: Antiproliferative activity against human NCI-H358 cells expressing KRAS G12C mutant assessed as inhibition of cell growth incubated for 72 hrs by CCK-8 assay. It is filed as functional, cell-based. Conditions: NCI-H358, 72 h.
For data set [7], the system named is HepG2. Kind of data set: Antiproliferative activity against human HepG2 cells expressing KRAS assessed as inhibition of cell growth incubated for 72 hrs by CCK-8 assay. It is filed as functional, cell-based. Conditions: HepG2, 72 h.
Data set [8] has as its system MIA PaCa-2. Description: Antiproliferative activity against human MIA PaCa-2 cells expressing KRAS G12C mutant assessed as inhibition of cell growth incubated for 72 hrs by CCK-8 assay. It is filed as functional, cell-based. The note with it: MIA PaCa-2, 72 h.
The test system of data set [9] is ASPC1. Description: Antiproliferative activity against human ASPC1 cells expressing KRAS G12D mutant assessed as inhibition of cell growth incubated for 72 hrs by CCK-8 assay. Conditions: ASPC1, 72 h. It is filed as functional, cell-based.
The nature of data set [10]: Cytotoxicity against HEK293T cells assessed as inhibition of cell growth incubated for 72 hrs by CCK-8 assay. It is filed as toxicity, cell-based, HEK-293T. The note with it: human.
The test system of data set [11] is Calu-1. Description: Antiproliferative activity against human Calu-1 cells expressing KRAS G12C mutant assessed as relative cell viability at 50 nM incubated for 72 hrs by CCK-8 assay. It is filed as functional. The note with it: read-out: Activity.
The subject of data set [12] is NCI-H358. Kind of data set: Antiproliferative activity against human NCI-H358 cells expressing KRAS G12C mutant assessed as relative cell viability at 50 nM incubated for 72 hrs by CCK-8 assay. It is filed as functional. The note with it: read-out: Activity.
In data set [13] the test system is MIA PaCa-2. Description: Antiproliferative activity against human MIA PaCa-2 cells expressing KRAS G12C mutant assessed as relative cell viability at 50 nM incubated for 72 hrs by CCK-8 assay. It is filed as functional. The note with it: read-out: Activity.
Data set [14] has as its system SW837. Description: Antiproliferative activity against human SW837 cells expressing KRAS G12C mutant assessed as relative cell viability at 50 nM incubated for 72 hrs by CCK-8 assay. Type of data set: functional. Conditions: read-out: Activity.
Data set [15] relates to NCI-H23. Description: Antiproliferative activity against human NCI-H23 cells expressing KRAS G12C mutant assessed as relative cell viability at 50 nM incubated for 72 hrs by CCK-8 assay. Type of data set: functional. The note with it: read-out: Activity.

With `NC1(c2ccc(-c3nc4ccn5c(=O)[nH]nc5c4cc3-c3ccccc3)cc2)CCC1` [MK-2206], the viability at 0.1 µM in [1] was found to be 0.84%; in data set [2] it was 0.92%; in data set [3] it was 0.85%; in [4], 0.82%; in data set [5], 0.88%.

Take `Cc1ccc(NC(=O)c2ccnc(C(F)(F)F)c2)cc1-c1cc(OCCO)nc(N2CCOCC2)c1` [NAPORAFENIB]: the viability at 0.1 µM was found to be 0.85% in data set [1]; 0.79% in data set [2]; 0.82% in data set [3]; 0.9% in [4]; 0.81% in [5].

As usually defined, the IC50 is the point on the concentration scale where inhibition reaches its midpoint. For `C=CC(=O)N1CCN(c2nc(=O)n(-c3c(C)ccnc3C(C)C)c3nc(-c4c(F)cccc4OCc4cn(CCCCCC(=O)N[C@H](C(=O)N5C[C@H](O)C[C@H]5C(=O)NCc5ccc(-c6scnc6C)cc5)C(C)(C)C)nn4)c(F)cc23)[C@@H](C)C1`, the IC50 was 289 nM in [6], greater than 10000 nM in data set [7], 481 nM in data set [8] and greater than 10000 nM in data set [9]. For the same molecule, the IC50 at 72 h in [10] is greater than 10000 nM.

In the case of `C=CC(=O)N1CCN(c2nc(=O)n(-c3c(C)ccnc3C(C)C)c3nc(-c4c(F)cccc4OCc4cn(CC(=O)N[C@H](C(=O)N5C[C@H](O)C[C@H]5C(=O)NCc5ccc(-c6scnc6C)cc5)C(C)(C)C)nn4)c(F)cc23)[C@@H](C)C1`, the IC50 in data set [6] was 562 nM; in data set [7] it was greater than 10000 nM; in [8], 529 nM; in data set [9], greater than 10000 nM. For the same molecule, in data set [10], the half-maximal inhibitory concentration (IC50) at 72 h is greater than 10000 nM.

`Cn1c(=O)n(-c2ccc(C(C)(C)C#N)cc2)c2c3cc(-c4cnc5ccccc5c4)ccc3ncc21` [DACTOLISIB]: the viability at 0.05 µM in data set [11] amounted to 0.88%; in data set [12], 0.77%; in data set [13] it was 0.7%; in data set [14], 0.82%; in [15], 0.79%.

With `C=CC(=O)N1CCN(c2nc(=O)n(-c3c(C)ccnc3C(C)C)c3nc(-c4c(F)cccc4OCc4cn(CCCC(=O)N[C@H](C(=O)N5C[C@H](O)C[C@H]5C(=O)NCc5ccc(-c6scnc6C)cc5)C(C)(C)C)nn4)c(F)cc23)[C@@H](C)C1`, the IC50 in data set [6] is 368 nM; in [7] it was greater than 10000 nM; in data set [8], 491 nM; in [9] it was greater than 10000 nM. For the same molecule, the IC50 at 72 h in [10] was greater than 10000 nM.

Take `C=CC(=O)N1CCN(c2nc(=O)n(-c3c(C)ccnc3C(C)C)c3nc(-c4c(F)cccc4OCCN4CCN(CCC(=O)N[C@H](C(=O)N5C[C@H](O)C[C@H]5C(=O)NCc5ccc(-c6scnc6C)cc5)C(C)(C)C)CC4)c(F)cc23)[C@@H](C)C1`: the half-maximal inhibitory concentration (IC50) is 253 nM in [6], greater than 10000 nM in data set [7], 172 nM in data set [8] and greater than 10000 nM in data set [9]. The IC50 at 72 h in [10] was greater than 10000 nM.

For the molecule `Cn1cnc2c(F)c(Nc3ccc(Br)cc3Cl)c(C(=O)NOCCO)cc21` [SELUMETINIB], the viability at 0.05 µM in data set [11] stood at 0.82%; in [12], 0.86%; in data set [13] it was 0.71%; in data set [14], 0.73%; in data set [15], 0.77%.
